Among the data in PubChem BioAssay AID463136 (University of Pittsburgh Molecular Library Screening Center, 2010) are IC50 and inhibition values, retold here.

As a reminder, the IC50 is the midpoint of a concentration-inhibition curve. In general, inhibition refers to the relative decrease from the control value, in per cent.

The test system of experiment [1] is HCS imaging, dynein-mediated cargo transport inhibition. Nature of the experiment: dynein cargo transport inhibitors, potency, dose response, imaging, high-content imaging (AID 463136).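 Further: mouse mammary adenocarcinoma 3617.4 cells expressing GFP-tagged rat glucocorticoid receptor.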
Test in experiment [2]: as above
Particulars: HCS imaging, dynein-mediated cargo transport inhibition; inhibition at max concentration; at 50 µM; stronger effect = higher value.

Structures are written as SMILES. Inconclusive results are not listed. Calls of active or inactive are those of the source. How the calls were made is not given here.

Turning to `O=C(c1ccccc1)c1ccccc1N1C(=O)C=CC1=O`, the IC50 in experiment [1] was > 50 µM (inactive). In experiment [2], the inhibition came out at 7.43%.
The corresponding values for `Cc1ccc(-n2nnnc2Sc2ccc(S(=O)(=O)NCCN(C)C)cc2[N+](=O)[O-])cc1` are 11.9 µM and 86.3%.
Regarding `O=Cc1s/c(=N\S(=O)(=O)c2ccccc2)n(CCCCl)c1Cl`, in experiment [1], the IC50 was 33.2 µM. For the same compound, the inhibition in experiment [2] is 68.2%.
The corresponding values for `CCOC(=O)N1C/C(=C\c2ccccc2)C(=O)/C(=C/c2ccccc2)C1` are 32.8 µM and 78.7%.
On the same counts, the results for `COC(=O)[C@@]1(Cc2ccccc2)[C@@H]2C(=CC(=O)[C@H]2CC(=O)C(=O)N(C)C)CN1C(=O)c1ccccc1` are 4.67 µM and 86.2%.
On the same counts, the results for `COc1ccc(CN=Cc2[nH]c3ccc(Br)c(Cl)c3c2O)cc1` are 28.5 µM and 93.4%.
Consider `CNC(=O)c1nnsc1S(=O)c1ccc(Cl)cc1` (stereo not drawn), for which the half-inhibitory concentration (IC50) in experiment [1] was 7.18 µM. Further, the inhibition in experiment [2] is 74.6%.
For `COc1ccc(CCn2c(C)cc(C(=O)CCl)c2C)cc1OC`, the IC50 in experiment [1] was 9.84 µM. Further, the inhibition in experiment [2] turned out to be 82.1%.
On the same counts, the results for `CCOC(=O)/C(=C\c1cccnc1)C(=O)c1cc(C(C)=O)c(Nc2ccccc2)s1` are 9.84 µM and 80.4%.
The corresponding values for `Cn1cc([N+](=O)[O-])c(C(=O)Nc2cc(Oc3ccccc3)cc([N+](=O)[O-])c2)n1` are > 50 µM (inactive) and 45.9%.
On the same counts, the results for `CC(=O)Nc1sc(/C(C#N)=C\c2cccc(Cl)c2)nc1-c1ccc(C)cc1` are 8.22 µM and 109%.
Regarding `CC(C)n1c(O)c(C2c3cc(Cl)ccc3Oc3[nH]c(=O)n(C(C)C)c(=O)c32)c(=O)[nH]c1=O` (stereo not drawn), the IC50 in experiment [1] is 13.6 µM. Besides, in experiment [2], the inhibition was found to be 64.2%.
The corresponding values for `O=[N+]([O-])c1c(NCCCO)cc(Sc2ccc(Cl)cc2)c2nonc12` are > 50 µM (inactive) and 30.9%.
The corresponding values for `CCOC(=O)c1cn(-c2c(Cl)cccc2Cl)c2cc(Cl)c([N+](=O)[O-])cc2c1=O` are 29 µM and 82.8%.
On the same counts, the results for `Cc1nc([N+](=O)[O-])c(Br)n1CC(=O)c1cccc([N+](=O)[O-])c1` are 9.94 µM and 91.4%.
As for `C#CC(=O)N(c1ccc(OC)c(OC)c1)C(C(=O)NC1CCCC1)c1cccs1` (stereo not drawn), the IC50 in experiment [1] is > 50 µM (inactive). Besides, the inhibition in experiment [2] amounted to 40.2%.
The corresponding values for `O=[N+]([O-])c1ccc(NCc2ccccc2)c2nonc12` are 26.9 µM and 99.5%.
On the same counts, the results for `C=C1C(=O)C=C2CN(C(=O)c3ccccc3)[C@@](Cc3ccc(F)cc3)(C(=O)OC)[C@@H]12` are 4 µM and 80.3%.
On the same counts, the results for `CCOC(=O)CC1C(=O)NCCN1c1nc2ccc(C)cn2c(=O)c1/C=C1\SC(=S)N(CC(C)C)C1=O` (stereo not drawn) are 44.9 µM and 71.8%.
As to `Cc1ccccc1N1C(=O)CC(Sc2nnc(-c3ccccc3)o2)C1=O` (stereo not drawn), the IC50 in experiment [1] is > 50 µM (inactive). Further, in experiment [2], the inhibition came out at 16.4%.
On the same counts, the results for `CC(C)(C)NC(=S)N/N=C\c1ccc(-c2ccc([N+](=O)[O-])cc2)o1` are > 50 µM (inactive) and 3.06%.
For `O=[N+]([O-])c1ccc(N/N=C/c2c[nH]c3ccccc23)cc1`, the IC50 in experiment [1] was 21.7 µM. In addition, in experiment [2], the inhibition is 118%.
On the same counts, the results for `O=C(c1ccc(F)cc1)C(CN1CCOCC1)c1ccccc1` (stereo not drawn) are 7.15 µM and 85.7%.
Turning to `CCN(CC)c1ccc(/C=C/[N+](=O)[O-])cc1`, in experiment [1], the IC50 was > 50 µM (inactive). For the same compound, the inhibition in experiment [2] turned out to be 0.227%.
On the same counts, the results for `CCOC(=O)C(=Cc1ccc(F)cc1)C(=O)OCC` are 27.8 µM and 73.4%.
On the same counts, the results for `Cc1cc(C(=O)CCl)c(C)n1-c1ccon1` are 11.8 µM and 61.3%.
On the same counts, the results for `Cc1cc(N2CCCC2)c(F)cc1/C=C\[N+](=O)[O-]` are 25.2 µM and 126%.
Consider `COc1ccc(N(C(=O)CCl)C(C(=O)NCCc2ccccc2)c2cccs2)cc1Cl` (stereo not drawn), for which, in experiment [1], the IC50 is 14.8 µM. Besides, the inhibition in experiment [2] worked out at 93.6%.
On the same counts, the results for `Cc1c(N=C2C=CC(=O)c3ccccc32)c(=O)n(-c2ccccc2)n1C` are 39.6 µM and 76.4%.
On the same counts, the results for `O=C1C(Cl)=C(NCCN2CCCCC2)C(=O)c2ccccc21` are 31.8 µM and 63.5%.
The corresponding values for `CCCNC(=O)Cn1c(=O)/c(=C\c2ccc(-c3ccc([N+](=O)[O-])cc3)o2)s/c1=C\C(=O)C(C)(C)C` are 32.2 µM and 95.2%.
For the compound `CCCSc1cc(NCCOC(=O)CCC)c([N+](=O)[O-])c2nonc12`, the IC50 in experiment [1] was 28.4 µM. The inhibition in experiment [2] worked out at 59.1%.
On the same counts, the results for `N#CC(C#N)=C1C=C2C=C(N3CCCCC3)CCC2CC1` (stereo not drawn) are 35.8 µM and 99.5%.
On the same counts, the results for `Cc1ccc(NC(=O)C(=Cc2ccc(C(=O)O)cc2)C(=O)Nc2ccc(C)cc2C)c(C)c1` are 11.1 µM and 78%.
